Here are results for 111 compounds from a melting point compilation (Tetko et al.).

In the case of `C=C(C)C(=O)OCCCC`, the melting point (in general, the temperature of the solid-liquid transition) was -75 °C.

`C=CCCCCCCCCCCCCCCCCCCCC` returned a melting point of 38 °C.

`O=Cc1c(F)cc(O)cc1F` gave a melting point of 181 °C.

The compound `CC(C)=NOCCOC(=O)C(C)Oc1ccc(Oc2cnc3cc(Cl)ccc3n2)cc1` (stereo unspecified) showed a melting point of 66.3 °C.

On to `CCCCCC(=O)Cc1cc(O)cc2c1C(=O)Oc1cc(O)c(C(=O)O)c(CCCCC)c1O2`, for which the melting point is 205 °C.

Take `C=CCNC(=O)OC(C)(C)C`: the melting point is 37 °C.

In turn, `O=C(O)c1cc(F)c(Cl)cc1Cl` returned a melting point of 141 to 144 °C.

For `N#Cc1cc(Br)ccc1N`, the melting point was in the range of 93 to 98 °C.

For `CCN1CCN(c2cc3c(cc2F)c(=O)c(C(=O)O)cn3C2CC2)CC1`, the melting point stood at 220 °C.

The compound `COc1ccc(OCC(O)CN)cc1` (stereo unspecified) had a melting point of 110 to 112 °C.

`O=C(O)c1ccccc1-c1cccnc1` gave a melting point of 188 °C.

Compound `Cc1cc(O)c(C(C)(C)C)cc1C(C)CC(c1cc(C(C)(C)C)c(O)cc1C)c1cc(C(C)(C)C)c(O)cc1C` (stereo unspecified) returned a melting point of 186 °C.

In turn, `O=Cc1ccc(-c2cncc(C(=O)O)c2)cc1` came in with a melting point of 231 to 234 °C.

In turn, `CC(=O)C12CC3CC(CC(C3)C1)C2` registered a melting point of 53 to 55 °C.

The compound `CC=CC(=O)c1ccccc1` returned a melting point of 20.5 °C.

For the compound `Nc1ccc(S(=O)(=O)F)cc1`, the melting point is 68.5 °C.

In the case of `COC(=O)Cc1csc2ccc(Cl)cc12`, the melting point fell in the range of 55 to 56 °C.

In turn, `Cc1cccc(C(=O)N(NC(=O)c2ccccc2)C(C)(C)C)c1C` returned a melting point of 204 °C.

Regarding `O=C(NCNN(CNC(=O)c1ccccc1)CNC(=O)c1ccccc1)c1ccccc1`, the melting point was in the range of 123 to 125 °C.

The compound `COc1cc(C=O)c([N+](=O)[O-])cc1OC` returned a melting point of 133 °C.

In turn, `Cc1cccc(C(=O)Cl)c1C` registered a melting point of 2 °C.

On to `COc1ccc(C#N)c(OC)c1`, for which the melting point is 94 °C.

`CCOC(=O)c1oc(C(=O)OCC)c(O)c1O` showed a melting point of 178 to 180 °C.

`CN(c1c(F)c(F)c(C#N)c(F)c1F)[N+](=O)[O-]` had a melting point of 53 °C.

For `O=c1cc[nH]c(=O)[nH]1`, the melting point worked out at 338 °C.

The compound `Cc1ccc([N+](=O)[O-])cc1O` gave a melting point of 118 °C.

In turn, `Clc1ccc(OCCBr)cc1` returned a melting point of 38 to 39 °C.

For the compound `COc1cc(C)c(S(=O)(=O)Cl)c(C)c1C`, the melting point was 58 °C.

On to `ClCc1nc(-c2ccc(Cl)cc2)no1`, for which the melting point was 60 to 61 °C.

Regarding `CC(C)(Sc1cc(C(C)(C)C)c(O)c(C(C)(C)C)c1)Sc1cc(C(C)(C)C)c(O)c(C(C)(C)C)c1`, the melting point was 125 °C.

`CCOP(=S)(S)OCC` had a melting point of -10 °C.

Consider `NNc1ncccc1[N+](=O)[O-]`, for which the melting point is 165 °C.

On to `N#CCCP(CCC#N)c1ccccc1`, for which the melting point was 73 °C.

The compound `c1ccc(-c2nccnc2-c2ccccc2)cc1` came in with a melting point of 121 °C.

For `CC(C)=CCCC(C)=CCO`, the melting point turned out to be 50 °C.

`CC1=NN(c2ccccc2)C(=O)C1=C(Br)C1C(=O)N(c2ccccc2)N=C1C` (stereo unspecified) displayed a melting point of 218 to 219 °C.

On to `Ic1ccc(-c2ccno2)cc1`, for which the melting point was in the range of 139 to 140 °C.

Consider `CNP(=O)(OC)Oc1ccc(C(C)(C)C)cc1Cl` (stereo unspecified), for which the melting point turned out to be 60 °C.

Take `COC1=C(OC)C(C(O)CBr)OC1=O` (stereo unspecified): the melting point stood at 96 °C.

`CN1CCN(c2ccc(C=O)cc2)CC1` had a melting point of 57 to 60 °C.

Turning to `O=C(c1cccc2ccccc12)C(O)c1ccccc1` (stereo unspecified), the melting point is 105 to 106 °C.

With `O=C(Oc1cccc(N=Nc2cccc(OC(=O)c3ccccc3)c2)c1)c1ccccc1`, the melting point amounted to 180 °C.

`Fc1c(F)c(F)c(P(CCP(c2c(F)c(F)c(F)c(F)c2F)c2c(F)c(F)c(F)c(F)c2F)c2c(F)c(F)c(F)c(F)c2F)c(F)c1F` had a melting point of 190 to 195 °C.

`Cc1cc(CCl)c(CCl)cc1C`: the melting point was in the range of 104 to 106 °C.

The compound `CC(C)c1ccc(C=CC(=O)O)cc1` gave a melting point of 157 to 161 °C.

As for `Cc1ccc(Cl)cc1C(=O)O`, the melting point fell in the range of 168 to 170 °C.

`O=C(O)[C@H](O)[C@@H](O)[C@H](O)[C@H](O)CO` returned a melting point of 131 °C.

As to `CCOC(=O)c1c2ccccc2nn1C`, the melting point fell in the range of 50 to 52 °C.

The compound `O=C1C=C(c2ccccc2)CC1` displayed a melting point of -23 °C.

`COc1ccc(C(=O)N(NC(=O)c2ccccc2)C(C)(C)C)cc1OC`: the melting point came to 206 °C.

As for `NNC(=O)c1ccc(O)cc1O`, the melting point came to 241 °C.

Turning to `CN1CCN(c2ccccc2C=O)CC1`, the melting point is 44 to 48 °C.

On to `CC(CO)c1c(O)c(O)c2c(c1O)C(=O)C(O)=C1C(C)(C)CCCC12C` (stereo unspecified), for which the melting point was determined as 237 °C.

In turn, `CC1(C)N[C@H](C(=O)O)Cc2c1[nH]c1ccccc21` displayed a melting point of 227 to 228 °C.

`O=C(O)c1ccc(-c2ncccn2)cc1` yielded a melting point of 238 to 240 °C.

In turn, `CCC(C)c1cccc(C(C)CC)c1O` (stereo unspecified) had a melting point of -42 °C.

Consider `CC12CCC3C(CCC4CC=CCC43C)C1CCC2=O` (stereo unspecified), for which the melting point is 104 °C.

The compound `COC(=O)c1nc(Cl)c(Cl)nc1N` came in with a melting point of 232 °C.

As for `CC(=O)C(Cl)C(C)=O`, the melting point is -15 °C.

In turn, `Cc1nc(-c2ccccc2)sc1S(=O)(=O)Cl` gave a melting point of 76 to 78 °C.

For `COC(=O)c1ccc([N+](=O)[O-])cc1C(=O)OC`, the melting point stood at 67 °C.

On to `OCc1ccc(-c2cncnc2)cc1`, for which the melting point is 127 to 130 °C.

On to `O=C(O)c1ccc(Cn2cnc3ccccc32)cc1`, for which the melting point lay within 260 to 262 °C.

`Cc1cc(Br)cc(C)c1N=C=O` gave a melting point of 61 °C.

Turning to `Clc1ccc(Br)cn1`, the melting point was found to be 70 °C.

With `Nc1ccc2c(c1)OCO2`, the melting point lay in the range of 38 to 43 °C.

Consider `Nc1ccc(-c2ccc(NNc3ccccc3)cc2)cc1`, for which the melting point amounted to 140 °C.

In turn, `OCc1cccc(Oc2ccccn2)c1` yielded a melting point of 57 to 59 °C.

Consider `O=Cc1nc2ccccc2c2ncccc12`, for which the melting point was in the range of 144 to 145 °C.

For `OCc1cc(C(F)(F)F)ccc1N1CCOCC1`, the melting point fell in the range of 83 to 84 °C.

For the compound `COC(=O)c1cc(I)cc(C(=O)OC)c1`, the melting point lay in the range of 105 to 107 °C.

Turning to `CC(NNC(=O)c1ccccc1)c1ccccc1` (stereo unspecified), the melting point stood at 93.5 °C.

Compound `CC(=Cc1ccc(F)cc1)[N+](=O)[O-]` returned a melting point of 64 to 67 °C.

In the case of `C[C@@](O)(CC(=O)O)C(=O)O`, the melting point lay within 107 to 111 °C.

For `O=Cc1ccc(C(F)(F)F)nc1`, the melting point lay within 53 to 55 °C.

For `CC(=O)Nc1c(C)ccc2c1C(=O)c1ccccc1C2=O`, the melting point turned out to be 133 °C.

The compound `C/C=C/C(=O)NNc1ccccc1` came in with a melting point of 190 °C.

On to `CC(=O)OC[C@H]1O[C@@H](OCc2ccccc2)[C@H](OC(C)=O)[C@@H](OC(C)=O)[C@@H]1OC(C)=O`, for which the melting point was in the range of 96 to 100 °C.

The compound `NC(CSc1ncccc1C(F)(F)F)=NO` came in with a melting point of 161 to 164 °C.

`O=C(O)C[C@H](NC(=O)OCC1c2ccccc2-c2ccccc21)c1ccccc1` displayed a melting point of 187 °C.

The compound `Cc1cc(I)cc(C)c1O` gave a melting point of 99 to 102 °C.

`CCCC(=O)CCC` came in with a melting point of -33 °C.

For the compound `O=C(O)c1ccccc1CS(=O)c1ccccc1` (stereo unspecified), the melting point lay within 185 to 187 °C.

As to `N#Cc1c(N)cc(N)nc1Br`, the melting point came to 257 °C.

In turn, `O=C1NC2CCCC12` (stereo unspecified) came in with a melting point of 45 to 50 °C.

As to `NNC(=S)Nc1cccc(Cl)c1`, the melting point turned out to be 132 °C.

Compound `Cc1cc(C)n(CO)n1` gave a melting point of 109 °C.

Compound `CN(C)c1ccc(C=C2C(=O)OC(C)(C)OC2=O)cc1` came in with a melting point of 162 °C.

In turn, `Nc1cc(Cl)c(C(F)(F)F)cc1[N+](=O)[O-]` gave a melting point of 113 to 114 °C.

Regarding `CC(=O)C=P(c1ccccc1)(c1ccccc1)c1ccccc1`, the melting point amounted to 204 °C.

Regarding `CC(=O)c1c(Cl)cccc1Cl`, the melting point was found to be 43 °C.

`O=C(O)c1ccc(O)c([N+](=O)[O-])c1` came in with a melting point of 230 °C.

For `N#CC1=C(N)N2C(=C(C#N)C1c1ccccc1)Sc1ccccc12` (stereo unspecified), the melting point worked out at 205 °C.

On to `NNC(=O)c1ccc(Cl)cc1Cl`, for which the melting point worked out at 169 °C.

Compound `Nc1c(Cl)ncnc1Cl` came in with a melting point of 145 °C.

As to `CC1=NN(c2ccccc2)C(=O)C1C(Br)C1(Br)C(=O)N(c2ccccc2)N=C1C` (stereo unspecified), the melting point was in the range of 307 to 308 °C.

Compound `BrCC(Br)c1cccc(C(Br)CBr)c1` (stereo unspecified) had a melting point of 65 °C.

Compound `ICc1ccccc1` gave a melting point of 24.5 °C.

With `O=c1oc(=O)c2ccccc2c2ccccc12`, the melting point was in the range of 223 to 227 °C.

`Cc1ccc(C=C2C(=O)NN=C2c2c(O)c3ccccc3n(C)c2=O)cc1` registered a melting point of 280 °C.

`Oc1ccc(Cl)nc1` displayed a melting point of 155 °C.

Consider `O=C1C(C(O)c2ccccc2Cl)C(C(F)(F)F)=NN1c1ccccc1` (stereo unspecified), for which the melting point was 251 °C.

Compound `CCC(Br)=CBr` had a melting point of -49.5 °C.

In turn, `CCOC(=O)CC(O)(CC(=O)OCC)C(=O)OCC` showed a melting point of -46 °C.

The compound `Cc1cccc(C)c1NC(=O)c1cc(S(N)(=O)=O)c(Cl)cc1O` showed a melting point of 256 °C.

Compound `Cc1nc2ccccc2nc1C` registered a melting point of 105 °C.

With `CC(C)(C)c1ccc(C(=O)c2ccccc2)cc1`, the melting point came to 40 °C.

With `Cn1nc(C(F)(F)F)cc1-c1ccc(S(=O)(=O)Cl)s1`, the melting point was in the range of 68 to 70 °C.

In turn, `c1ccc(N(c2ccccc2)c2ccccc2)cc1` came in with a melting point of 127 °C.

In the case of `OC12CCCCCC1c1ccccc12` (stereo unspecified), the melting point is 100 °C.

`COc1ccc(-c2cc(N3CCCC3)cc3c2c(=O)n(-c2ccccc2)n3C)cc1` showed a melting point of 217 °C.
